Columns and labels:
[1] = target: Aurora B-as7 (L138V, L154G-AB) kinase (Homo sapiens, UniProt Q96GD4, L138V/L154G); experiment: In vitro kinase assay with AB-as7; assay type: biochemical; conditions: phosphodonor as labelled
[2] = system: wt kinases present in the MDA cell lysate; experiment: In vitro kinase reaction with MDA cell lysate and [γ-32P] Phenethyl-ATP; assay type: biochemical; conditions: cell lysate alone, without AA-as7/TPX2
Protocol: To prepare a labeled sample for 2D gel electrophoresis, kinase reactions with whole cell lysate or fractionated lysate were carried out as published before (Sun, et al, (2008a) Mol. Biol. Cell 19, 3052-3069). Gel spots were manually excised and automatically processed for peptide mapping experiments using a Micromass MassPREP Station in conjunction with manufacturer specified protocols.
An in vitro kinase reaction was performed using unsynchronized MDA cell lysate, [[γ-^32P] Phenethyl-ATP and Aurora A-as7/TPX2 to identify novel Aurora A substrates. […] Phenethyl ATP is specific for the engineered kinase and is not accepted by wt kinases present in the cell lysate. In contrast, when AA-as7 and TPX2 were added to the cell lysate along with Phenethyl ATP, it phosphorylated several proteins. These proteins are the direct targets of Aurora A. To isolate these targets, proteins were separated using 2D gel electrophoresis, isolated and visualized by autoradiography. Radiolabeled proteins were excised from gel and subsequent to trypsin digestion the peptide cleavage products were identified by tandem mass spectrometry. Several Aurora A substrates were identified including PHLDA1, p53 and vimentin.

[3] = target: T1, AA-as7 kinase (Aurora A LI85V, L201G) (Mus musculus, UniProt P97477, L185V/L201G); experiment: In vitro kinase assay with AA-as7 and TPX2; assay type: biochemical, murine; conditions: AA-as7; phosphodonor as labelled
T1 construct: the Aurora A mutant is the double mutant Aurora A (AA-as7); 6-His; made in house; host or cells: Sf9 insect cells (baculovirus, Bac-to-Bac)
T1 sequence (P97477 1-395 L185V/L201G): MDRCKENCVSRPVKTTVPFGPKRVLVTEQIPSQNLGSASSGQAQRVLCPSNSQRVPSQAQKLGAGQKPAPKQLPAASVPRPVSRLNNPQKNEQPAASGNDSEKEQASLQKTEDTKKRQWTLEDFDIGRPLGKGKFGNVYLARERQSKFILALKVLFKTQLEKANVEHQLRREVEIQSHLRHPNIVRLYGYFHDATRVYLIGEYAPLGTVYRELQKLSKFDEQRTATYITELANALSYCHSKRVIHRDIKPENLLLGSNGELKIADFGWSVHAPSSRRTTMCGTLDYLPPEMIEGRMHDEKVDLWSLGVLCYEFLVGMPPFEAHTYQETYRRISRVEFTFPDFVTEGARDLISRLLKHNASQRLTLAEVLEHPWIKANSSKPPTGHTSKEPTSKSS
Protocol: For in vitro labeling, Aurora A/TPX2 complex (on beads) was pre-incubated with 10 μM cold ATP for 10 min to activate the kinase. The beads were washed twice with kinase buffer, and then subjected to kinase assay with 2-5 μg of recombinant protein (such as PHLDA) and 1 μCi of [γ-^32P] ATP. Reactions were terminated by adding SDS sample buffer, separated by SDS-PAGE gel, transferred to PVDF membrane and exposed to Biomax MS film. Aurora A kinase assays were conducted using 1 μCi of [γ-^32P] ATP and 3 μg of Aurora A substrate peptide in a final volume of 30 μl at 30° C. as reported before (Sun, et al, (2008a) Mol. Biol. Cell 19, 3052-3069).
IC50 values were determined by fitting the data to a sigmoidal dose response curve using GraphPad Prism 4.0 software. Km and Vmax values were derived from the assay described above using various concentrations of AA peptide substrate and ATP. Km and Vmax values were determined using GraphPad Prism 4.0 software.

Sequence of Aurora B-as7 (L138V, L154G-AB) kinase (Q96GD4 whole entry L138V/L154G): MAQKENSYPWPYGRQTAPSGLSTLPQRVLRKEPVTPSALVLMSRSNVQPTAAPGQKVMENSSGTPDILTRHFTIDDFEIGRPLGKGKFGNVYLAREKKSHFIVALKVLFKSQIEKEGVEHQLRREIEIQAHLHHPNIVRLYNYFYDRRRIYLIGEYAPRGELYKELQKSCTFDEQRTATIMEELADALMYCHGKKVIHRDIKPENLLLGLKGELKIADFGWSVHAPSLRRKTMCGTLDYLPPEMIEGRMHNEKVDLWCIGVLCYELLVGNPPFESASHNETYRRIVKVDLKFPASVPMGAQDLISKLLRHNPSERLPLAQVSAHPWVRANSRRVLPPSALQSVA

O=P(O)(O)OP(=O)(O)OP(=O)(O)OC[C@H]1O[C@@H](n2cnc3c(NCCc4ccccc4)ncnc32)[C@H](O)[C@@H]1O [N^6-phenethyl ATP, N^6-(phenethyl) ATP]
Kcat [1]: 6.2 s⁻¹ | Km [1]: 11.4 µM | Vmax [1]: 7.44 × 10^4 | labelling signal in cell lysate [2]: no signal | Kcat [3]: 223 s⁻¹ | Km [3]: 11.6 µM | Vmax [3]: 3.02 × 10^6

Source: patent US20130253037A1, “AURORA A KINASE EFFECTORS” (PURDUE RESEARCH FOUNDATION, priority 2010, published 2013)
